Here are results for two compounds from EP1174152B1, “Inclusion complex of an opioid peptide with cyclodextrin” (COUNCIL OF SCIENTIFIC AND INDUSTRIAL RESEARCH, priority 2000, dated 2002).

One data set deals with rhesus monkeys. Put plainly: 30 days toxicity study by subcutaneous route in rhesus monkey. The class given is in vivo. Particulars: once daily for 30 consecutive days, 3.75, 7.5 and 15 mg/kg. How it is done: (§1) 30 days toxicity study of L-Tyrosyl-D-alanyl-glycyl-N-methylphenylanyl-glycyl-isopropylamide in rat and rhesus monkey by subcutaneous route.
(§2) Compound L-Tyrosyl-D-alanyl-glycyl-N-methylphenylalanyl-glycyl-isopropylamide dissolved in saline was given daily by subcutaneous route to groups of rats (n=10 males and 10 females in each group) and rhesus monkeys (n=2 males and 2 females in each group) once daily for 30 consecutive days. The dose levels used in rats were 0 0, 7.5, 15.0 and 30.0 mg/kg and in monkeys 0.0, 3.75, 7.5 and 15 mg/kg. Dose levels were selected on the basis of rat ED of 3.0 mg/kg and extrapolation thereof in the monkey. […]
(§3) Body weights (weekly in rats, initial and day 30 in monkeys), daily food (rat and monkeys) and water (rat only) consumption and parameters of hematology, urinalysis and blood biochemistry of the animals was recorded All the animals were sacrificed at the end of 30 days Necropsy was performed and histophathological examination of all the important organs and tissues were done. […]
(§4) During necropsy examination of the external surface of the body, all orifices, and the cranial thoracic and abdominal cavities and their contents was performed. […] Liver, kidneys, adrenals, brain heart lungs, spleen and gonads were weighed, and their rdative weights were also calculated. […]

In another data set the test system is rats. The data set can be described thus: 30 days toxicity study by subcutaneous route in rat. Format: in vivo. The note with it: once daily for 30 consecutive days, 7.5, 15.0 and 30.0 mg/kg. The procedure:
as §1, §2, §3, §4

A further data set has as its system leucine amino peptidase. The note with it: enzyme hydrolysis with leucine amino peptidase; cited from earlier work.

On to `CC(C)NC(=O)CNC(=O)[C@H](Cc1ccccc1)N(C)C(=O)CNC(=O)[C@@H](C)NC(=O)[C@@H](N)Cc1ccc(O)cc1` [L-Tyrosyl-D-alanyl-glycyl-N-methylphenylalanyl-glycyl-isopropylamide], for which the “30-day toxicity study outcome” value in the data set with rhesus monkeys and in the data set with rats was “found safe” each time.

In the case of Leu-enkephalin, the half life in the data set on leucine amino peptidase was 45 min.
